For the experiment, the system named is Alternaria solani. Put plainly: Alternaria Test (Tomato)/Protective. The settings on record: protective, 750 g/ha, evaluated 7 days after inoculation. In kind it is in vivo. The procedure:
[table] To produce a suitable preparation of active compound, 1 part by weight of active compound is mixed with the stated amounts of solvent and emulsifier, and the concentrate is diluted with water to the desired concentration. In order to test the protective activity, young tomato plants are sprayed with the active compound preparation at the stated application rate. One day after treatment, the plants are inoculated with a spore suspension of Alternaria solani and then remain for 24 hours at 100% relative humidity and 20° C. The plants are then placed into in environment of 96% relative humidity at a temperature of 20° C. The results are evaluated 7 days after the inoculation. An efficacy of 0% corresponds to that of the control, while an efficacy of 100% means that no infestation is observed.

Compound `Cc1nc(C(F)F)c(C(=O)Nc2ccc(F)cc2-c2ccc(Cl)c(F)c2)s1` [drawing 82] yielded an Efficacy in % of 98%.
